Laboratory results published in patent US20240307419A1, “CONFORMATIONALLY-CONSTRAINED INHIBITORS OF 3C OR 3C-LIKE PROTEASES” (priority 2021, published 2024).
Like-named read-outs stand apart in the source and are kept apart here.

Tests used:
[1] = test system: Huh-7, CRFK, or CCL1 cells
SARS-CoV-2 3CLpro = SARS-CoV-2 3CLpro (Severe acute respiratory syndrome coronavirus 2 (2019-nCoV) (SARS-CoV-2), UniProt P0DTD1); test: biochemical; format: biochemical
MERS-CoV 3CLpro = MERS-CoV 3CLpro (Middle East respiratory syndrome-related coronavirus (isolate United Kingdom/H123990006/2012) (MERS-CoV) (Betacoronavirus England 1), UniProt K9N7C7); format: biochemical
MERS-CoV 3CLpro, sequence (K9N7C7 3248-3553 limits assumed): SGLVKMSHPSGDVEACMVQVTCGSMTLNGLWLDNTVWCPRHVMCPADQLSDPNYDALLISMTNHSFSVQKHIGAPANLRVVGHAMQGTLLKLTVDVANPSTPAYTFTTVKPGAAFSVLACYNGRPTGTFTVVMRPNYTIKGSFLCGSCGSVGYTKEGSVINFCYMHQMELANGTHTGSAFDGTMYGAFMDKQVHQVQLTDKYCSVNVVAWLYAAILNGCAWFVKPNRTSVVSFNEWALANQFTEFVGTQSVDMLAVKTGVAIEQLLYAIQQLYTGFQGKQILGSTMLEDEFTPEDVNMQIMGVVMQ

CRFK cells = details: cat
SARS-CoV-2 replicon = test: microbe, parasite or virus in culture; format: cell-based; details: Severe acute respiratory syndrome coronavirus 2, HEK-293T, 30 h, read-out: EC50, SARS-CoV-2 replicon assay

Compound	CC50 [1] [nM]	IC50 (SARS-CoV-2 3CLpro; read-out: IC50) [nM]	further results
[2H]C([2H])(OC(=O)N[C@@H](CC(C)C)C(=O)N[C@H](C=O)C[C@@H]1CCNC1=O)[C@@H]1C[C@@H]2C=CC[C@@H](C2)C1 [Compound 2d, ((1S,3S,5R)-Bicyclo[3.3.1]non-6-en-3-yl)methyl-d2 ((S)-4-methyl-1-oxo-1-(((S)-1-oxo-3-((S)-2-oxopyrrolidin-3-yl)propan-2-yl)amino)pentan-2-yl)carbamate]	> 100000	280 ± 80	
CC(C)C[C@H](NC(=O)OCC1CC2C=CC1C2)C(=O)N[C@H](C=O)C[C@@H]1CCNC1=O (stereo partly drawn) [Compound 2e, Bicyclo[2.2.1]hept-5-en-2-ylmethyl ((S)-4-methyl-1-oxo-1-(((S)-1-oxo-3-((S)-2-oxopyrrolidin-3-yl)propan-2-yl)amino)pentan-2-yl)carbamate]	> 100000	260 ± 50	
CC(C)C[C@H](NC(=O)OCC1CC2CCC1C2)C(=O)N[C@H](C=O)C[C@@H]1CCNC1=O (stereo partly drawn) [Compound 2f, Bicyclo[2.2.1]heptan-2-ylmethyl ((S)-4-methyl-1-oxo-1-(((S)-1-oxo-3-((S)-2-oxopyrrolidin-3-yl)propan-2-yl)amino)pentan-2-yl)carbamate]	> 100000	140 ± 20	IC50 (MERS-CoV 3CLpro): 63 ± 3 nM
CC(C)C[C@H](NC(=O)O[C@@H]1C[C@H]2CC[C@@H](C1)N2C(=O)OC(C)(C)C)C(=O)N[C@H](C=O)C[C@@H]1CCNC1=O [Compound 2g, tert-Butyl (1R,3s,5S)-3-((((S)-4-methyl-1-oxo-1-(((S)-1-oxo-3-((S)-2-oxopyrrolidin-3-yl)propan-2-yl)amino)pentan-2-yl)carbamoyl)oxy)-8-azabicyclo[3.2.1]octane-8-carboxylate]	> 100000	1900 ± 140	
CC(C)C[C@H](NC(=O)O[C@@H]1C[C@H]2CC[C@@H](C1)N2C(=O)OCc1ccccc1)C(=O)N[C@H](C=O)C[C@@H]1CCNC1=O [Compound 2h, Benzyl (1R,3s,5S)-3-((((S)-4-methyl-1-oxo-1-(((S)-1-oxo-3-((S)-2-oxopyrrolidin-3-yl)propan-2-yl)amino)pentan-2-yl)carbamoyl)oxy)-8-azabicyclo[3.2.1]octane-8-carboxylate]	> 100000	390 ± 20	
[2H]C([2H])(OC(=O)N[C@@H](CC(C)C)C(=O)N[C@H](C=O)C[C@@H]1CCNC1=O)C12CCC(CCCCC)(CC1)CC2 [Compound 2j, (4-Pentylbicyclo[2.2.2]octan-1-yl)methyl-d2 ((S)-4-methyl-1-oxo-1-(((S)-1-oxo-3-((S)-2-oxopyrrolidin-3-yl)propan-2-yl)amino)pentan-2-yl)carbamate]	20000 ± 3000	310 ± 30	
CC(C)C[C@H](NC(=O)OCC12CC3CC(CC(C3)C1)C2)C(=O)N[C@H](C=O)C[C@H]1CCNC1=O [Compound 2k, ((3S,5S,7S)-Adamantan-1-yl)methyl((S)-4-methyl-1-oxo-1-(((S)-1-oxo-3-((S)-2-oxopyrrolidin-3-yl)propan-2-yl)amino)pentan-2-yl)carbamate]	> 100000	180 ± 40	IC50 (MERS-CoV 3CLpro): 55 ± 2 nM
CC(C)C[C@H](NC(=O)OCCC12CC3CC(CC(C3)C1)C2)C(=O)N[C@H](C=O)C[C@H]1CCNC1=O [Compound 2m, 2-((3S,5S,7S)-Adamantan-1-yl)ethyl ((S)-4-methyl-1-oxo-1-(((S)-1-oxo-3-((S)-2-oxopyrrolidin-3-yl)propan-2-yl)amino)pentan-2-yl)carbamate]	> 100000	270 ± 20	
CC(C)C[C@H](NC(=O)OC[C@@]12C[C@@H]3C[C@@H](C[C@@](O)(C3)C1)C2)C(=O)N[C@H](C=O)C[C@@H]1CCNC1=O [Compound 2n, ((1r,3R,5R,7S)-3-Hydroxyadamantan-1-yl)methyl ((S)-4-methyl-1-oxo-1-(((S)-1-oxo-3-((S)-2-oxopyrrolidin-3-yl)propan-2-yl)amino)pentan-2-yl)carbamate]	> 100000	820 ± 190	decrease in potency compared to 2k/3k (SARS-CoV-2 3CLpro): ~5 fold
[2H]C([2H])(OC(=O)N[C@@H](CC(C)C)C(=O)N[C@@H](C[C@@H]1CCNC1=O)C(O)S(=O)(=O)[O-])[C@@H]1C[C@@H]2C=CC[C@@H](C2)C1.[Na+] (stereo partly drawn) [Compound 3d, Sodium (2S)-2-((S)-2-(((((1S,3S,5R)-bicyclo[3.3.1]non-6-en-3-yl)methoxy-d2)carbonyl)amino)-4-methylpentanamido)-1-hydroxy-3-((S)-2-oxopyrrolidin-3-yl)propane-1-sulfonate]	> 100000	300 ± 30	
CC(C)C[C@H](NC(=O)OCC1CC2C=CC1C2)C(=O)N[C@@H](C[C@@H]1CCNC1=O)C(O)S(=O)(=O)O (stereo partly drawn) [Compound 3e, Sodium (2S)-2-((2S)-2-(((bicyclo[2.2.1]hept-5-en-2-ylmethoxy)carbonyl)amino)-4-methylpentanamido)-1-hydroxy-3-((S)-2-oxopyrrolidin-3-yl)propane-1-sulfonate]	> 100000	280 ± 30	
CC(C)C[C@H](NC(=O)OCC1CC2CCC1C2)C(=O)N[C@@H](C[C@@H]1CCNC1=O)C(O)S(=O)(=O)O (stereo partly drawn) [Compound 3f, Sodium (2S)-2-((2S)-2-(((bicyclo[2.2.1]heptan-2-ylmethoxy)carbonyl)amino)-4-methylpentanamido)-1-hydroxy-3-((S)-2-oxopyrrolidin-3-yl)propane-1-sulfonate]	> 100000	100 ± 10	IC50 (MERS-CoV 3CLpro): 58 ± 2 nM
CC(C)C[C@H](NC(=O)OC1CC2CCC(C1)N2C(=O)OC(C)(C)C)C(=O)N[C@@H](C[C@H]1CCNC1=O)C(O)S(=O)(=O)O (stereo partly drawn) [Compound 3g, Sodium (2S)-2-((S)-2-(((((1R,3s,5S)-8-(tert-butoxycarbonyl)-8-azabicyclo[3.2.1]octan-3-yl)oxy)carbonyl)amino)-4-methylpentanamido)-1-hydroxy-3-((S)-2-oxopyrrolidin-3-yl)propane-1-sulfonate]	> 100000	1710 ± 160	
CC(C)C[C@H](NC(=O)OC1CC2CCC(C1)N2C(=O)OCc1ccccc1)C(=O)N[C@@H](C[C@H]1CCNC1=O)C(O)S(=O)(=O)O (stereo partly drawn) [Compound 3h, Sodium (2S)-2-((S)-2-(((((1R,3s,5S)-8-((benzyloxy)carbonyl)-8-azabicyclo[3.2.1]octan-3-yl)oxy)carbonyl)amino)-4-methylpentanamido)-1-hydroxy-3-((S)-2-oxopyrrolidin-3-yl)propane-1-sulfonate]	> 100000	370 ± 30	
CC(C)C[C@H](NC(=O)OCC12CC3CC(CC(C3)C1)C2)C(=O)N[C@@H](C[C@H]1CCNC1=O)C(O)S(=O)(=O)O (stereo partly drawn) [Compound 3k, Sodium (2S)-2-((S)-2-(((((3S,5S,7S)-adamantan-1-yl)methoxy)carbonyl)amino)-4-methylpentanamido)-1-hydroxy-3-((S)-2-oxopyrrolidin-3-yl)propane-1-sulfonate]	> 100000	150 ± 40	IC50 (MERS-CoV 3CLpro): 53 ± 3 nM
CC(C)C[C@H](NC(=O)OCCC12CC3CC(CC(C3)C1)C2)C(=O)N[C@@H](C[C@H]1CCNC1=O)C(O)S(=O)(=O)O (stereo partly drawn) [Compound 3m, Sodium (2S)-2-((S)-2-(((2-((3S,5S,7S)-adamantan-1-yl)ethoxy)carbonyl)amino)-4-methylpentanamido)-1-hydroxy-3-((S)-2-oxopyrrolidin-3-yl)propane-1-sulfonate]	> 100000	250 ± 40	
CC(C)C[C@H](NC(=O)OCC12CC3CC(CC(O)(C3)C1)C2)C(=O)N[C@@H](C[C@H]1CCNC1=O)C(O)S(=O)(=O)[O-].[Na+] (stereo partly drawn) [Compound 3n, Sodium (2S)-1-hydroxy-2-((S)-2-(((((1r,3R,5R,7S)-3-hydroxyadamantan-1-yl)methoxy)carbonyl)amino)-4-methylpentanamido)-3-((S)-2-oxopyrrolidin-3-yl)propane-1-sulfonate]	> 100000	1030 ± 240	decrease in potency compared to 2k/3k (SARS-CoV-2 3CLpro): ~5 fold
CC(C)C[C@H](NC(=O)OC1CC2(CCN(C(=O)OC(C)(C)C)CC2)C1)C(=O)N[C@H](C=O)C[C@H]1CCNC1=O [Compound 7b, Tert-butyl 2-((((S)-4-methyl-1-oxo-1-(((S)-1-oxo-3-((R)-2-oxopyrrolidin-3-yl)propan-2-yl)amino)pentan-2-yl)carbamoyl)oxy)-7-azaspiro[3.5]nonane-7-carboxylate]			CC50 (CRFK cells): > 100000 nM; EC50 (SARS-CoV-2 replicon): 90 nM; IC50 lower than that of compound 1b (SARS-CoV-2 3CLpro): > 9 fold
CC(C)C[C@H](NC(=O)OC1CC2(CCN(C(=O)OC(C)(C)C)CC2)C1)C(=O)N[C@@H](C[C@H]1CCNC1=O)C(O)S(=O)(=O)O (stereo partly drawn) [Compound 7c, Sodium (2S)-2-((S)-2-((((7-(tert-butoxycarbonyl)-7-azaspiro[3.5]nonan-2-yl)oxy)carbonyl)amino)-4-methylpentanamido)-1-hydroxy-3-((R)-2-oxopyrrolidin-3-yl)propane-1-sulfonate]			CC50 (CRFK cells): > 100000 nM; EC50 (SARS-CoV-2 replicon): 80 nM
CC(C)C[C@H](NC(=O)OCC1CN(C(=O)OC(C)(C)C)C1)C(=O)N[C@H](C=O)C[C@H]1CCNC1=O [Compound 14b, Tert-butyl 3-(((((S)-4-methyl-1-oxo-1-(((S)-1-oxo-3-((R)-2-oxopyrrolidin-3-yl)propan-2-yl)amino)pentan-2-yl)carbamoyl)oxy)methyl)azetidine-1-carboxylate]			CC50 (CRFK cells): > 100000 nM; EC50 (SARS-CoV-2 replicon): 380 nM
CC(C)C[C@H](NC(=O)OCC1CN(C(=O)OC(C)(C)C)C1)C(=O)N[C@@H](C[C@H]1CCNC1=O)C(O)S(=O)(=O)O (stereo partly drawn) [Compound 14c, Sodium (2S)-2-((S)-2-((((1-(tert-butoxycarbonyl)azetidin-3-yl)methoxy)carbonyl)amino)-4-methylpentanamido)-1-hydroxy-3-((R)-2-oxopyrrolidin-3-yl)propane-1-sulfonate]			CC50 (CRFK cells): > 100000 nM; EC50 (SARS-CoV-2 replicon): 430 nM; IC50 (SARS-CoV-2 3CLpro): 50 nM
